Measured values: patent US20250283049A1, “AGENT FOR CULTURING ORGANOID IN ABSENCE OF EXTRACELLULAR MATRIX” (KEIO UNIVERSITY, priority 2022, published 2025)

B1: Oncostatin M: cytokine of a cytokine family that binds to gp130 (protein, UniProt P13725 26-221, looked up)
Oncostatin-M: AAIGSCSKEYRVLLGQLQKQTDLMQDTSRLLDPYIRIQGLDVPKLREHCRERPGAFPSEETLRGLGRRGFLQTLNATLGCVLHRLADLEQRLPKAQDLERSGLNIEDLEKLQMARPNILGLRNNIYCMAQLLDNSDTAEPTKAGRGASQPPTPTPASDAFQRKLEGCRFLHGYHRFMHSVGRVFSKWGESPNRSRR

How the values were obtained:
Format in all cases: cell-based
[1] = tested on: human small intestine-derived organoid; assay: Culture of organoids in absence of Matrigel with LATS kinase inhibitor; cell number by ATP (CellTiter-Glo 3D); details: both Lats-IN (10 μM) and MYF01-37 added
Description: (§1) In this experimental example, a human small intestine-derived organoid and human large intestine-derived organoid established in the presence of Matrigel (registered trademark) were cultured in the absence of Matrigel (registered trademark) and in the presence of a LATS kinase inhibitor (final concentration: 10 μM), and their dynamics were observed. The procedure was the same as in Experimental Example 1, except that each organoid was cultured in the absence of Matrigel (registered trademark).
The upper left panel of FIG. 3 is a photograph of a control (Ctrl) human small intestine-derived organoid cultured in the absence of Lats-IN, and the upper center panel of FIG. 3 is a photograph of a human small intestine-derived organoid cultured in the presence of Lats-IN. The scale bar is 100 μm. […] The vertical axis of the graph represents luminescence intensity (relative value) indicating the amount of ATP present. […]
(§2) FIG. 8 presents graphs showing the results of measuring the proliferation of the human small intestine-derived and human large intestine-derived organoids in the absence of Lats-IN (Ctrl), in the presence of Lats-IN (Lats-IN), in the presence of Lats-IN and MYF01-37 (Lats-IN+MYF), and in the presence of MYF01-37 (MYF). The cell proliferation was measured by measuring ATP using a commercially available kit (product name “CellTiter-Glo 3D,” Promega Corporation). The vertical axis of the graph represents luminescence intensity (relative value) indicating the amount of ATP present. […]
(§3) FIG. 26 presents graphs showing the results of measuring cell number in each organoid after 6 days of culture by measuring ATP using a commercially available kit (product name “CellTiter-Glo 3D,” Promega Corporation). The vertical axis of the graph represents luminescence intensity (relative value) indicating the amount of ATP present.

[2] = tested on: human large intestine-derived organoid; assay: as above; details: both Lats-IN (10 μM) and MYF01-37 added
Description: as §1
The lower left panel of FIG. 3 is a photograph of a control (Ctrl) human large intestine-derived organoid cultured in the absence of Lats-IN, and the lower center panel of FIG. 3 is a photograph of a human large intestine-derived organoid cultured in the presence of Lats-IN. The scale bar is 100 μm. The lower right panel of FIG. 3 is a graph showing the results of measuring cell number in the human large intestine-derived organoids cultured in the presence of the control (Ctrl) and Lats-IN. The vertical axis of the graph represents luminescence intensity (relative value) indicating the amount of ATP present. […]
as §2, §3

[3] = tested on: human liver cell organoids; assay: Culturing liver cell organoids in absence of Matrigel; number of viable cells (CellTiter-Glo 3D); details: for number of viable cells, higher than control group: day 6 after seeding
Description: Human liver cell organoids, established from primary human liver cells, were supplemented with TrypLE Express (Thermo Fisher Scientific) and incubated at 37° C. for 5 minutes to dissociate them into single cells.
The cells were then collected and suspended in proliferation medium separately supplemented with 2, 5, 10, 20, or 50 μM TDI-011536 (CAS No. 2687970-96-1), and […] seeded into an ultra-low attachment 96-well plate at 2,000 cells/well. The preferred seeding density is 2,000 to 4,000 cells/well. In addition, cells in proliferation medium supplemented with no TDI-011536 were prepared as a control.
The proliferation medium was a medium consisting of a basal medium (Advanced DMEM/F-12 medium, 10 mM HEPES, 2 mM GlutaMAX, 100 U penicillin, 100 μg/mL streptomycin) supplemented with 10% afamin-Wnt-3A conditioned medium, 2% R-spondin 1 conditioned medium, 2% Noggin conditioned medium, and 20 ng/ml Oncostatin M.
On day 6 after seeding, the number of viable cells in the human liver cell organoids was measured using a commercially available kit (product name “CellTiter-Glo 3D,” Promega Corporation).

[4] = tested on: primary human liver cells (EpCAM-negative); assay: Establishment of liver cell organoids in absence of Matrigel; details: for establishment of human liver cell organoids: proliferation medium with both 20 μM TDI-011536 and 20 ng/ml Oncostatin M
Description: Frozen primary human liver cells were suspended in Advanced DMEM/F-12 medium and thawed. Two types of primary human liver cells, Line 1 and Line 2, were used.
Subsequently, each of the thawed primary human liver cells was stained with an APC-labeled mouse anti-human EpCAM antibody, and EpCAM-negative cells were collected using a cell sorter. The collected cells were then suspended in proliferation medium supplemented with 20 μM TDI-011536 and seeded into an ultra-low attachment 96-well plate at 3,000 to 4,000 cells/well. The cells were then cultured to obtain liver cell organoids. In addition, for comparison, cells were also prepared using proliferation medium supplemented with no TDI-011536 or no Oncostatin M.
The passaging of liver cell organoids in the absence of Matrigel (registered trademark) was performed as follows. First, calcium ions and magnesium ions were chelated using 1 mM EDTA/phosphate buffered saline (PBS). Subsequently, the liver cell organoids were supplemented with TrypLE Express (Thermo Fisher Scientific) and incubated at 37° C. for 5 minutes to dissociate them into single cells.
The collected cells were then suspended in proliferation medium supplemented with 20 μM TDI-011536 and seeded into an ultra-low attachment 96-well plate at 2,000 cells/well.
The scale bar is 500 μm. FIG. 24 presents graphs showing the results of measuring changes in cell proliferation over time. In FIG. 24, the vertical axes of the graphs represent cell proliferation (fold increase), and the horizontal axes indicate the number of days of culture. In FIGS. 23 and 24, “OSM” represents Oncostatin M, and “Lats IN” represents the LATS kinase inhibitor (TDI-011536).

| Molecule | cell proliferation (ATP luminescence) when TEAD inhibited [1] | cell proliferation (ATP luminescence) when TEAD inhibited [2] | number of viable cells, higher than control group ([3]; 20 μM) [fold] | number of viable cells, higher than control group ([3]; 50 μM) [fold] | number of viable cells (words, FIG. 22) ([3]; adding the LATS kinase inhibitor) | duration for which established organoids could be cultured ([4]; 20 μM TDI-011536 and Oncostatin M) | establishment of human liver cell organoids [4] |
| --- | --- | --- | --- | --- | --- | --- | --- |
| C=CC(=O)N1CCC(C)(Nc2cccc(C(F)(F)F)c2)C1 (centres unmarked) [MYF01-37] | inhibited | inhibited |  |  |  |  |  |
| O=C(N=c1scc(CO)n1Cc1ccccc1)c1c[nH]c2ncccc12 [TDI-011536] |  |  | 16 | 17 | increase in the number of viable cells was observed | at least two months | successfully established |
| B1 |  |  |  |  |  |  | successfully established |
